The text below walks through data of US11472758B2, “Methods for obtaining compounds from a plant or fungus material, respective compositions, and uses thereof” (Real Isolates, LLC, priority 2020, dated 2022).

Series [1] addresses T1, CB2R (Homo sapiens, UniProt P34972). Set-up: host or cells: brain synaptosomal samples; COS-7 over-expression. To be noted: brain synaptosomal samples; COS-7 over-expression model; cited from earlier work.
The target in series [2] is T2, CB1R (Homo sapiens, UniProt P21554). Set-up: host or cells: brain synaptosomal samples; COS-7 over-expression. Conditions: brain synaptosomal samples; COS-7 over-expression model; cited from earlier work.
In series [3] the target is T2, CB1R. Conditions: known; cited from earlier work.
The target in series [4] is T1, CB2R. Conditions: known; cited from earlier work.
For series [5], the system named is mice. Conditions: cited from earlier work.
For series [6], the system named is 15-lipoxygenase (15-LOX). Conditions: has been shown; cited from earlier work.
The subject of series [7] is volunteer with HNPP. Put plainly: Human trial of HCD or MCD for hereditary neuropathy with liability to pressure palsy (HNPP). The class given is in vivo. How it is done:
A volunteer has a rare genetic disorder, HNPP, resulting in neuropathic pain, muscle weakness, numbness, and loss of fine motor skills. The volunteer previously needed high doses (more than 5 g/day) of medical Cannabis to receive beneficial effects, but reduced overall intake when they began taking HCD and MCD. Their current dose schedule is 15-30 mg of HCD per day (˜7 mg-15 mg CBD) and MCD as needed. They are not taking any other medication.

Series [8] deals with volunteer with severe, chronic migraines. Put plainly: Human trial of HCD or MCD for chronic migraine. The class given is in vivo.
The subject of series [9] is volunteer with a developmental disorder. Put plainly: Human trial of HCD or MCD for autism spectrum/schizophrenia spectrum disorder. The class given is in vivo. The source says:
An assigned person at birth nonbinary volunteer with a history of a developmental disorder whose symptoms span both Autism Spectrum Disorder and Schizophrenia Spectrum Disorder. They stopped taking all psychopharmaceutical agents in 2010 after beginning to use medical Cannabis daily. Outside of 3 relapses due to over 14+ days without Cannabis, they have had no issues managing their symptoms since. Due to decreased symptoms, they are highly functional, fully independent, and no longer meet criteria for their previous diagnoses. In August 2020, they began using the HCD and MCD. They have not missed a single dose of HCD in 5 months; it is their longest span of completely continuous compliance.

Series [10] relates to volunteer with severe Crohn's disease. Put plainly: Human trial of HCD or MCD for Crohn's disease. The series is classed as in vivo. The source says:
A volunteer with severe Crohn's disease and who has had over 50 hospital emergency visits since diagnosis in 2015. Treatment with multiple pharmaceutical agents were unsuccessful. They stopped using all pharmaceutical agents in 2018. In August 2020, they began using HCD and MCD. They were able to completely stop a Crohn's disease flare in November 2020 using two consecutive doses of MCD.

The conditions of series [11]: has been shown; cited from earlier work.
Series [12] relates to CB1R. To be noted: performed similarly to THC, but at a lower potency; cited from earlier work.
The mark [13] stands for this setting: smoking/inhalation at 575-600° F., 25 mg CBD isolate.
Setting [14] is: smoking/inhalation at 575-600° F., 7 mg CBD isolate.

T1 sequence (P34972 whole entry): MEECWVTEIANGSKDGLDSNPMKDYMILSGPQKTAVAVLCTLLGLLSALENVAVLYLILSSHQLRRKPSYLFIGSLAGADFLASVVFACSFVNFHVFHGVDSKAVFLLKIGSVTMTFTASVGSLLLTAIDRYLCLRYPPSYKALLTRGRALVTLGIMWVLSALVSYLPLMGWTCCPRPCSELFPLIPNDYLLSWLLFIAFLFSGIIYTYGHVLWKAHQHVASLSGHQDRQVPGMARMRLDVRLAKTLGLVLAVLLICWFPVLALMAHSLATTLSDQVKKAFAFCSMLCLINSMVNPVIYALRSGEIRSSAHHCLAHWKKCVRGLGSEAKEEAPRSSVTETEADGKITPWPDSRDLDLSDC
T2 sequence (P21554 whole entry): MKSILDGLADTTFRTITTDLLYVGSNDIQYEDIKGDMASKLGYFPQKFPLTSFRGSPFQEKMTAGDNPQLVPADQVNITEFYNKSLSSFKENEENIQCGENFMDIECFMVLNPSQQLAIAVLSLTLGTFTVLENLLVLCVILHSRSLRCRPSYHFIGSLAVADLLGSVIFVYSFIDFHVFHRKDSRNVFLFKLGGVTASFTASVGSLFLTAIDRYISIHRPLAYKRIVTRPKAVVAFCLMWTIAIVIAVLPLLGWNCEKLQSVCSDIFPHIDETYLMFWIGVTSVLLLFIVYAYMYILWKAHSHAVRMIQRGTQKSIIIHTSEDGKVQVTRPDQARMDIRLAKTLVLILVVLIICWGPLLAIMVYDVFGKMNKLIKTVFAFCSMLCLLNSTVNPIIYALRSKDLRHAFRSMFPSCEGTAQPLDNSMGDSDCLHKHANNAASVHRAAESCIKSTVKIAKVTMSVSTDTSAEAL

On to `CCCCCc1cc(OCCC)c2c(c1)OC(C)(C)c1ccc(C)cc1-2` [oprCBN, o-propylcannabinol], for which the “Potency at CB2 receptor relative to CBN” value in [1] was “vastly increase its potency”. Besides, the “Potency at CB1 receptor relative to CBN” value in series [2] is “vastly increase its potency”.

`CCCCCc1cc(O)c2c(c1)OC(C)(C)C1CCC(C)C=C21` (centres unmarked) [Δ10-Tetrahydrocannabinol, Δ10-tetrahydrocannabinol]: the “Interaction with CB1R” value in series [3] is “interact with CB1R”.

For `CCCCCc1cc(OC)c2c(c1)OC(C)(C)c1ccc(C)cc1-2` [omCBN, o-methylcannabinol], the “Potency at CB2 receptor relative to CBN” value in series [1] is “vastly increase its potency”. Further, the “Potency at CB1 receptor relative to CBN” value in series [2] is “vastly increase its potency”.

On to `CCCCCOc1cc(CCCCC)cc2c1-c1cc(C)ccc1C(C)(C)O2` [opeCBN, o-pentylcannabinol], for which the “Potency at CB2 receptor relative to CBN” value in series [1] was “vastly increase its potency”. The “Potency at CB1 receptor relative to CBN” value in series [2] is “vastly increase its potency”.

For the compound `CCCCCc1cc(O)c2c(c1)OC(C)(C)[C@@H]1CCC(C)=C[C@@H]21` [THC, Δ9-tetrahydrocannabinol], the “Activity at CB2R” value in series [4] was “partial agonist activity at nanomolar concentrations”.

`CCCCCc1cc(O)c2c(c1)OC(C)(C)c1ccc(C)cc1-2` [CBN, cannabinol]: the Pentobarbital-induced sleeping time result in [5] is recorded as “double”.

`C=C(C)[C@@H]1CCC(C)=C[C@H]1c1c(O)cc(CCCCC)cc1OC` [omCBD, o-methylcannabidiol]: the 15-LOX inhibition entry in [6] was “selective and potent”.

Take `C=C(C)[C@@H]1CCC(C)=C[C@H]1c1c(O)cc(CCCCC)cc1O` [CBD, cannabidiol]: the “Activity at CB1R” value in series [3] is given as “neutral antagonist activity at nanomolar concentrations”. Also, the “Effect after oral administration” value in series [7] (oral, 15-30 mg HCD or same dose of commercially available CBD isolate) was “no noticeable effect”. In series [7] (setting [13]), the “Time at which effects began to wear off” value worked out at 45 min, the “Time at which no noticeable effects remained” value turned out to be 60 min and the “Time at which pain relief began” value was 10 min. Also, the “Activity at CB2R” value in series [4] is listed as “neutral antagonist activity at nanomolar concentrations”. Moreover, the Effect on migraines result in [8] (commercial CBD isolate 50 mg/day titrated up to 250 mg/day, after two months) was “marked decrease in the number and severity of migraines”. For the same compound, in [8] (commercially available CBD isolate, anxiety, migraine threshold, migraine severity), the “Oral dose needed to achieve results similar to 15 mg HCD” value was “over 200 mg”. Moreover, the “After effect observed the next day” value in [9] (400-600 mg commercially available CBD isolate) is given as ““hangover””. Also, the Negative side effects result in series [9] (doses of 50 mg/day of CBD) is “forgetfulness/brain fog, apathy, decreased endurance, decreased strength, interrupted sleep routine”. Also, the “Dose used to abort panic attacks and/or break perseverative loops” value in series [9] (oral, same efficacy) lay in the range of 400 to 600 mg. Besides, the “Potency compared to orally ingested hemp Cannabis distillate (times less potent)” value in series [9] (orally ingested, Example 20) was “at least 10 times”. Also, in series [10] (commercially available CBD isolate, two or more consecutive days), the “Oral dose needed to achieve results similar to 15 mg HCD” value is on record as “over 50 mg”. Further, in [10] (setting [14]), the “Time at which effects began to wear off” value was determined as 45 min; the “Time at which no noticeable effects remained” value turned out to be 60 min; the “Time of decreased pain, stress, and anxiety” value turned out to be 15 min.

Turning to `C=C1CC[C@@H]2[C@@H](C1)c1c(O)cc(CCCCC)cc1OC2(C)C` [exo-tetrahydrocannabinol], the “Interaction with CB1R” value in series [3] is reported as “interact with CB1R”. Moreover, the Antibacterial activity entry in [11] is reported as “potent antibacterial activity”. For the same compound, in series [12], the “Activity in drug discrimination trials” value is recorded as “partial agonist activity”.
